In ChEMBL document CHEMBL2074516, “cDNA structure, genomic organization, and promoter analysis of the mouse intestinal peptide transporter PEPT1” (Biochim Biophys Acta, 2000):
Where a SMILES comes first, the peptide text is derived from it. [ ]: non-standard residue; d: D form. Sar = CNCC(=O)O

Columns and labels:
[1] = biological target: T1, Solute carrier family 15 member 1 (Mus musculus) (UniProt Q9JIP7); assay: TP_TRANSPORTER: uptake in Xenopus laevis oocytes; type: functional, cell-based; details: Oocyte
T1 sequence (whole entry): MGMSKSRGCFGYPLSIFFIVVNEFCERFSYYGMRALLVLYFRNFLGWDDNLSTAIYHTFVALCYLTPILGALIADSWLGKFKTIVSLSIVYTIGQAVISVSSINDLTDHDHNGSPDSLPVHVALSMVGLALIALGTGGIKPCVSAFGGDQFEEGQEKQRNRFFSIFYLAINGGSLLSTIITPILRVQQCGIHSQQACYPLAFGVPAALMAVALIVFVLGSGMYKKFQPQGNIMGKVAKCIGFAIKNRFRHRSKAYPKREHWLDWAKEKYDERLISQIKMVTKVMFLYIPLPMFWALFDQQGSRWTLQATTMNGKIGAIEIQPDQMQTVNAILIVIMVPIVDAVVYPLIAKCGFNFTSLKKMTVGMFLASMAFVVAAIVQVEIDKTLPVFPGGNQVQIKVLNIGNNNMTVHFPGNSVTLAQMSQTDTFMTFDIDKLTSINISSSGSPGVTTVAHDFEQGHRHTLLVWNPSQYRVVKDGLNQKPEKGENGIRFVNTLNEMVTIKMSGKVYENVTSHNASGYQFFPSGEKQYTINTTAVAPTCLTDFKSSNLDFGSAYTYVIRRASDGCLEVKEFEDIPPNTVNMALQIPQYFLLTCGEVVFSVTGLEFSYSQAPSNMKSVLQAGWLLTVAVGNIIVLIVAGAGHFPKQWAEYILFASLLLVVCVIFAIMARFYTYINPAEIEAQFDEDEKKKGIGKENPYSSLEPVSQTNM

[2] = biological target: T1, Solute carrier family 15 member 1 (Mus musculus); assay: TP_TRANSPORTER: uptake in PEPT1-expressing HRPE cells; type: functional, cell-based

Activity [1]: substrate [+] | Activity [2]: substrate [+]
Structure (SMILES): CN(CC(=O)O)C(=O)CN (H-Gly-[Sar]-OH)
